Earlier results in US20070142460A1, “Compounds, compositions and methods” (priority 2003, published 2007).

System: A549 cells

GI50	Structure (SMILES)
4 nM	CC(=O)O[C@H]1C(=O)[C@@]2(C)[C@H]([C@H](OC(=O)c3ccccc3)[C@]3(O)C[C@H](OC(=O)[C@H](O)[C@@H](NC(=O)c4ccccc4)c4ccccc4)C(C)=C1C3(C)C)[C@]1(OC(C)=O)CO[C@@H]1C[C@@H]2O [paclitaxel]
63 nM	COc1cccc2c1C(=O)c1c(O)c3c(c(O)c1C2=O)C[C@@](O)(C(=O)CO)C[C@@H]3O[C@H]1C[C@H](N)[C@H](O)[C@H](C)O1 [doxorubicin]
500000 nM	NC(=O)NO [hydroxyurea]
1000 nM	O=c1[nH]cc(F)c(=O)[nH]1 [5-fluorouracil]
